Article PMC10377643, “Exploration of Bis-Cinnamido-Polyamines as Intrinsic Antimicrobial Agents and Antibiotic Enhancers” (Biomolecules, 2023)
≈ marks a conversion by molar mass, not a printed value.

Legend:
MRSA ATCC 43300 = experiment: Antimicrobial MIC, MRSA (CO-ADD); type: cell-based, methicillin-resistant S. aureus; settings: Staphylococcus aureus; MRSA ATCC 43300; mean (n = 2); read-out: MIC MRSA
Protocol: (§1) The susceptibility of bacterial strains S. aureus (ATCC 25923), E. coli (ATCC 25922) and P. aeruginosa (ATCC 27853) to antibiotics and compounds was determined using protocols reported previously. Additional antimicrobial evaluation against MRSA (ATCC 43300), Klebsiella pneumoniae (ATCC 700603), Acinetobacter baumannii (ATCC 19606), Candida albicans (ATCC 90028) and Cryptococcus neoformans (ATCC 208821) was undertaken at the Community for Open Antimicrobial Drug Discovery at The University of Queensland (Australia) according to their standard protocols reported previously.

P. aeruginosa ATCC 27853 [1] = experiment: Antimicrobial MIC, P. aeruginosa; type: cell-based; settings: Pseudomonas aeruginosa, ATCC27853, mean (n = 3)
Protocol: as §1

E. coli ATCC 25922 [2] = experiment: Antimicrobial MIC, E. coli; type: cell-based, Escherichia coli; settings: mean (n = 3)
Protocol: as §1

C. albicans ATCC 90028 = experiment: Antifungal MIC, C. albicans (CO-ADD); type: cell-based; settings: Candida albicans, ATCC90028, mean (n = 2)
Protocol: as §1

S. aureus ATCC 25923 = experiment: Antimicrobial MIC, S. aureus; type: cell-based; settings: Staphylococcus aureus, ATCC25923, mean (n = 3)
Protocol: as §1

P. aeruginosa ATCC 27853 [3] = experiment: Doxycycline enhancement against P. aeruginosa; type: cell-based, Pseudomonas aeruginosa; settings: doxycycline fixed at 4.5 µM
Protocol: (§2) Antibiotic enhancer concentrations were determined using previously reported protocols.
We then evaluated the set of analogues for the ability to enhance the antibiotic activity of doxycycline against P. aeruginosa ATCC 27853 and of erythromycin against E. coli ATCC 25922 (Table 2). In the case of doxycycline, a fixed concentration of the antibiotic of 4.5 μM, which is twenty-fold lower than the intrinsic MIC 90 μM against this organism, was used. Each of the test compounds was then evaluated at a range of concentrations varying from 3.125 to 50–100 μM, with the upper concentration dependent upon the compounds intrinsic MIC towards P. aeruginosa (Table 1). […] While the observation of cytotoxicity/hemolytic properties of 16a–c, 14f and 13f reduces our interest in these analogues, analogues 13b and 13d were identified as non-toxic and strong enhancers of the action of doxycycline towards P. aeruginosa.

E. coli ATCC 25922 [4] = experiment: Erythromycin enhancement against E. coli; type: cell-based, Escherichia coli; settings: erythromycin fixed at 10.9 µM (8 µg/mL)
Protocol: as §2

[5] = test system: C. neoformans ATCC 208821; experiment: Antifungal MIC, C. neoformans (CO-ADD); type: cell-based; settings: Cryptococcus neoformans, ATCC208821, mean (n = 2)
Protocol: as §1

Cytotoxicity assay = type: cell-based, human; settings: human, HEK293 human embryonic kidney cells, mean (n = 2), read-out: Cytotoxicity (IC50), concentration of compound at 50% cytotoxicity
Protocol: Cytotoxicity assays were conducted using the protocols previously reported.

human red blood cells = experiment: Hemolytic assay; type: cell-based; settings: mean (n = 2)
Protocol: Hemolysis assays were conducted using the protocols previously reported.

[6] = Escherichia coli, ATCC25922, E. coli ATCC 25922

Row | SMILES | MIC (MRSA ATCC 43300) | MIC (P. aeruginosa ATCC 27853 [1]) | MIC (E. coli ATCC 25922 [2]; [6]) | MIC (C. albicans ATCC 90028) | MIC (S. aureus ATCC 25923) | Dox/P. a: concentration required to restore doxycycline activity (P. aeruginosa ATCC 27853 [3]) | Dox/P. a: fold change (intrinsic MIC of test compound / combination MIC) (P. aeruginosa ATCC 27853 [3]) | Eryth/E. c: concentration required to restore erythromycin activity (E. coli ATCC 25922 [4]) | Eryth/E. c: fold change (intrinsic MIC of test compound / combination MIC) (E. coli ATCC 25922 [4]) | MIC [5] | IC50 (Cytotoxicity assay) | Hemolysis (HC10), concentration of compound at 10% hemolytic activity (human red blood cells) | MIC (E. coli ATCC 25922 [2]; E. coli ATCC 25922)
1 | O=C(C=Cc1ccccc1)NCCCNCCCCNCCCNC(=O)C=Cc1ccccc1.O=C(O)C(F)(F)F.O=C(O)C(F)(F)F [Compound 13a, N^1,N^4-Bis(3-cinnamamidopropyl)butane-1,4-diaminium 2,2,2-trifluoroacetate] | > 46.3 µM | 724 µM | 724 µM | > 46.3 µM | 724 µM | 145 µM | 5 fold | 145 µM | 5 fold | > 46.3 µM | – | – | –
2 | COc1ccc(/C=C/C(=O)NCCCNCCCCNCCCNC(=O)/C=C/c2ccc(OC)cc2)cc1.O=C(O)C(F)(F)F.O=C(O)C(F)(F)F [Compound 14a, N^1,N^4-Bis(3-((E)-3-(4-methoxyphenyl)acrylamido)propyl)butane-1,4-diaminium 2,2,2-trifluoroacetate] | > 42.6 µM | > 266 µM | 266 µM | > 42.6 µM | 33.3 µM | 16.6 µM | > 16 fold | 67 µM | 4 fold | – | > 42.6 µM | >42.6 µM | –
3 | COc1ccc(/C=C/C(=O)NCCCNCCCCCCCNCCCNC(=O)/C=C/c2ccc(OC)cc2)cc1.O=C(O)C(F)(F)F.O=C(O)C(F)(F)F [Compound 14c, N^1,N^7-Bis(3-((E)-3-(4-methoxyphenyl)acrylamido)propyl)heptane-1,7-diaminium 2,2,2-trifluoroacetate] | 20.2 µM | > 252 µM | 252 µM | > 40.4 µM | 31.5 µM | 31.5 µM | > 8 fold | 126 µM | 2 fold | – | > 40.4 µM | >40.4 µM | –
4 | COc1ccc(/C=C/C(=O)NCCCNCCCCCCCCCCNCCCNC(=O)/C=C/c2ccc(OC)cc2)cc1.O=C(O)C(F)(F)F.O=C(O)C(F)(F)F [Compound 14e, N^1,N^10-Bis(3-((E)-3-(4-methoxyphenyl)acrylamido)propyl)decane-1,10-diaminium 2,2,2-trifluoroacetate] | ≤ 0.3 µM | 240 µM | 120 µM | 38.3 µM | 1.87 µM | 60 µM | 4 fold | – | – | ≤ 0.3 µM | 2.3 µM | >38.3 µM | –
5 | COc1ccc(/C=C/C(=O)NCCCNCCCCCCCCCCCCNCCCNC(=O)/C=C/c2ccc(OC)cc2)cc1.O=C(O)C(F)(F)F.O=C(O)C(F)(F)F [Compound 14f, N^1,N^12-Bis(3-((E)-3-(4-methoxyphenyl)acrylamido)propyl)dodecane-1,12-diaminium 2,2,2-trifluoroacetate] | ≤ 0.29 µM | 232 µM | 7.2 µM | > 37.1 µM | 3.62 µM | 7.24 µM | 32 fold | 3.62 µM | 2 fold | – | 24.3 µM | – | 7.24 µM
6 | COc1ccc(/C=C/C(=O)NCCCNCCCCNCCCNC(=O)/C=C/c2ccc(OC)c(Br)c2)cc1Br.O=C(O)C(F)(F)F.O=C(O)C(F)(F)F [Compound 15a, N^1,N^4-Bis(3-((E)-3-(3-bromo-4-methoxyphenyl)acrylamido)propyl)butane-1,4-diaminium 2,2,2-trifluoroacetate] | 2.2 µM | > 220 µM | 55 µM | 17.6 µM | 13.8 µM | 27.5 µM | > 8 fold | 13.7 µM | 4 fold | ≤ 0.28 µM | > 35.2 µM | – | –
7 | COc1ccc(/C=C/C(=O)NCCCNCCCCCCCNCCCNC(=O)/C=C/c2ccc(OC)c(Br)c2)cc1Br.O=C(O)C(F)(F)F.O=C(O)C(F)(F)F [Compound 15c, N^1,N^7-Bis(3-((E)-3-(3-bromo-4-methoxyphenyl)acrylamido)propyl)heptane-1,7-diaminium 2,2,2-trifluoroacetate] | ≤ 0.26 µM | > 210 µM | 26 µM | 8.4 µM | 6.57 µM | 26.3 µM | > 8 fold | 13.1 µM | 2 fold | ≤ 0.26 µM | > 33.7 µM | – | –
8 | COc1ccc(/C=C/C(=O)NCCCNCCCCCCCCCCNCCCNC(=O)/C=C/c2ccc(OC)c(Br)c2)cc1Br.O=C(O)C(F)(F)F.O=C(O)C(F)(F)F [Compound 15e, N^1,N^10-Bis(3-((E)-3-(3-bromo-4-methoxyphenyl)acrylamido)propyl)decane-1,10-diaminium 2,2,2-trifluoroacetate] | ≤ 0.25 µM | 50.4 µM | 25.2 µM | 32.2 µM | 1.57 µM | 50.4 µM | 1 fold | – | – | 1 µM | > 32.2 µM | 24.1 µM | –
9 | COc1ccc(/C=C/C(=O)NCCCNCCCCCCCCCCCCNCCCNC(=O)/C=C/c2ccc(OC)c(Br)c2)cc1Br.O=C(O)C(F)(F)F.O=C(O)C(F)(F)F [Compound 15f, N^1,N^12-Bis(3-((E)-3-(3-bromo-4-methoxyphenyl)acrylamido)propyl)dodecane-1,12-diaminium 2,2,2-trifluoroacetate] | ≤ 0.24 µM | > 196 µM | 6.12 µM | – | 6.12 µM | 49.0 µM | > 4 fold | 6.1 µM | 1 fold | ≤ 0.24 µM | 1.12 µM | 1.17 µM | –
10 | COc1c(Br)cc(/C=C/C(=O)NCCCNCCCCCCCCCCNCCCNC(=O)/C=C/c2cc(Br)c(OC)c(Br)c2)cc1Br.O=C(O)C(F)(F)F.O=C(O)C(F)(F)F [Compound 16e, N^1,N^10-Bis(3-((E)-3-(3,5-dibromo-4-methoxyphenyl)acrylamido)propyl)decane-1,10-diaminium 2,2,2-trifluoroacetate] | ≤ 0.22 µM | 87 µM | 43.5 µM | 27.8 µM | 1.36 µM | 43.5 µM | 2 fold | – | – | ≤ 0.22 µM | 2 µM | 13.6 µM | –
11 | OC(Cn1cncn1)(Cn1cncn1)c1ccc(F)cc1F [fluconazole, reference compound] | – | – | – | 0.4 µM (≈ 0.123 µg/mL) | – | – | – | – | – | 26 µM (≈ 7.96 µg/mL) | – | – | –
12 | [H]/N=C(/N)N[C@H]1[C@H](O)[C@@H](O)[C@H](O[C@@H]2O[C@@H](C)[C@](O)(C=O)[C@H]2O[C@@H]2O[C@@H](CO)[C@H](O)[C@@H](O)[C@@H]2NC)[C@@H](N/C(N)=N\[H])[C@@H]1O [streptomycin, reference compound] | – | 21.5 µM (≈ 12.5 µg/mL) | 21.5 µM (≈ 12.5 µg/mL) | – | 21.5 µM (≈ 12.5 µg/mL) | – | – | – | – | – | – | – | –
13 | CC/C(=C(\c1ccccc1)c1ccc(OCCN(C)C)cc1)c1ccccc1 [tamoxifen, reference compound] | – | – | – | – | – | – | – | – | – | – | 24 µM | – | –
